Among the data in patent US11548888B2, “KRas G12C inhibitors” (Mirati Therapeutics, Inc., priority 2019, dated 2023) are IC50 values, retold here.

Molecules are shown by their SMILES.

The test deals with T1, KRas G12C (Homo sapiens, UniProt P01116, G12C).
T1 construct: NCI-H358 cells (ATCC CRL-5807) express KRas G12C
T1 sequence (P01116 1-188 isoform P01116-2 G12C): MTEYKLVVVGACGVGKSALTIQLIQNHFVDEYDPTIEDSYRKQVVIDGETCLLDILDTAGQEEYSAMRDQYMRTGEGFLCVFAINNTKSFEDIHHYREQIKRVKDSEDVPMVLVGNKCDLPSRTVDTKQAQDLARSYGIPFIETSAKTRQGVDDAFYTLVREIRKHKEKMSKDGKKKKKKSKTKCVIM
Description: Inhibition of KRas G12C-dependent cell growth: Phospho-ERK in NCI-H358 cells. It is filed as cell-based. To be noted: NCI-H358 cells expressing KRas G12C; Phospho-ERK (Thr202/Tyr204) normalized to GAPDH; 3 hours compound; 4 parameter fit. A digest of the protocol: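 NCI-H358 cells (KRas G12C) exposed to compounds for 3 h, 0.5% DMSO final. Fixed cells immunostained for pERK(Thr202/Tyr204) and GAPDH with infrared secondary antibodies. pERK normalized to GAPDH, expressed as percent of DMSO control; IC50 from 4-parameter dose-response fit.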
The term IC50 denotes the point on the concentration scale where inhibition reaches its midpoint. Higher therefore signals weaker potency in that assay. Take `C=C(F)C(=O)N1CCN(c2nc(OC[C@@H]3CCCN3C)nc3c(F)c(-c4cc(O)cc5ccccc45)ncc23)C[C@@H]1CC#N` [Example 95]: the IC50 came out at 14 nM. This counts as double-digit nanomolar.

`C=CC(=O)N1CCN(c2nc(OC[C@@H]3CCCN3C)nc3c(F)c(-c4cncc5cccc(Cl)c45)ncc23)[C@@H](C)C1` [Example 96] showed an IC50 of 200 nM.

On to `C=C(F)C(=O)N1CCN(c2nc(NC3CCN(C4CC4)CC3)nc3c(F)c(-c4cccc5cccc(Cl)c45)ncc23)C[C@@H]1CC#N` [Example 97], for which the IC50 is 2520 nM.

Take `C=CC(=O)N1CC2CC1CN2c1nc(OC[C@@H]2CCCN2C)nc2c(F)c(-c3cncc4cccc(Cl)c34)ncc12` (some centres unmarked) [Example 98]: the IC50 amounted to 10000 nM. Compared with the last molecule, the IC50 is about 4-fold higher.

For the molecule `C=C(F)C(=O)N1CCN(c2nc(OC[C@@H]3CCCN3C)nc3c(F)c(-c4c(C)ccc5cnn(C)c45)ncc23)C[C@@H]1CC#N` [Example 99], inhibition was half-maximal at 444 nM (IC50).

For the molecule `C=CC(=O)N1CCN(c2nc(OC[C@@H]3CCCN3C)nc3c(F)c(-c4ccccc4F)ncc23)[C@@H](C)C1` [Example 100], the IC50 stood at 10000 nM. This IC50 is about 23-fold higher than that of the molecule before.

The molecule `C=C(F)C(=O)N1CCN(c2nc(OCC34CCCN3CCC4)nc3c(F)c(-c4cccc(F)c4C(F)(F)F)ncc23)C[C@@H]1CC#N` [Example 101] showed an IC50 of 43 nM. Compared with the last molecule, the IC50 is about 230-fold lower.

In turn, `C=CC(=O)N1CCN(c2nc(OCC34CCCN3CCC4)nc3c(F)c(-c4cccc5ccc(F)c(Cl)c45)ncc23)CC1` [Example 102] registered an IC50 of 12 nM.

Consider `C=CC(=O)N1CCN(c2nc(OC[C@@H]3CCCN3C)nc3c(F)c(-c4nc(N)ccc4Cl)ncc23)CC1` [Example 103], for which the midpoint of inhibition, the IC50, lay at 10000 nM.

Take `C=C(F)C(=O)N1CCN(c2nc(OCCC(F)(F)F)nc3c(F)c(-c4cccc5ccc(F)c(Cl)c45)ncc23)C[C@@H]1CC#N` [Example 104]: inhibition was half-maximal at 699 nM (IC50).

In turn, `C=CC(=O)N1CC2CN(c3nc(OC[C@@H]4CCCN4C)nc4c(F)c(-c5cncc6cccc(Cl)c56)ncc34)CC2C1` (some centres unmarked) [Example 105] returned an IC50 of 10000 nM. This IC50 is about 14-fold higher than that of the molecule before.

`C=C(F)C(=O)N1CCN(c2ncnc3c(F)c(-c4cccc5cccc(Cl)c45)ncc23)C[C@@H]1CC#N` [Example 106] had an IC50 of 1540 nM.

`C=C(F)C(=O)N1CCN(c2nc(OC[C@@H]3CCCN3C)nc3c(F)c(-c4nc(N)cc5ccccc45)ncc23)C[C@@H]1CC#N` [Example 107] yielded an IC50 of 156 nM. Against the preceding molecule, the IC50 is about 9.9-fold lower.

Molecule `C=CC(=O)N1CCN(c2ncnc3c(F)c(-c4cccc5cccc(Cl)c45)ncc23)C[C@@H]1CC#N` [Example 108] had an IC50 of 37 nM.

Molecule `C=CC(=O)N1CCN(c2ncnc3c(F)c(-c4cccc5ccc(F)c(Cl)c45)ncc23)C[C@@H]1CC#N` [Example 109] returned an IC50 of 21 nM.

In turn, `COC/C=C/C(=O)N1CCN(c2ncnc3c(F)c(-c4cccc5ccc(F)c(Cl)c45)ncc23)C[C@@H]1CC#N` [Example 110] gave an IC50 of 725 nM.

For the molecule `C=C(F)C(=O)N1CCN(c2ncnc3c(F)c(-c4cccc5cccc(C)c45)ncc23)C[C@@H]1CC#N` [Example 111], the midpoint of inhibition, the IC50, lay at 3920 nM.

Molecule `N#CC[C@H]1CN(c2ncnc3c(F)c(-c4cccc5ccc(F)c(Cl)c45)ncc23)CCN1C(=O)/C=C/CF` [Example 112] came in with an IC50 of 218 nM. This IC50 is about 18-fold lower than that of the molecule before.

The molecule `C=C(F)C(=O)N1CCN(c2nc(OC[C@@H]3C[C@@H](OC)CN3C)nc3c(F)c(-c4cccc5ccc(F)c(Cl)c45)ncc23)C[C@@H]1CC#N` [Example 113] showed an IC50 of 13 nM. Compared with the last molecule, the IC50 is about 17-fold lower.

Consider `C=C(F)C(=O)N1CCN(c2nc(OCC34CCCN3CCC4)nc3c(F)c(-c4cccc5ccc(F)c(Cl)c45)ncc23)C[C@@H]1CC#N` [Example 114], for which inhibition was half-maximal at 2 nM (IC50). Compared with the last molecule, the IC50 is about 6.5-fold lower.

Regarding `N#CC[C@H]1CN(c2ncnc3c(F)c(-c4cccc5ccc(F)c(Cl)c45)ncc23)CCN1C(=O)/C=C/C(F)F` [Example 115], inhibition was half-maximal at 76 nM (IC50).

`C=C(F)C(=O)N1CCN(c2nc(OC[C@@H]3C[C@@H](F)CN3C(C)C)nc3c(F)c(-c4cccc5ccc(F)c(Cl)c45)ncc23)C[C@@H]1CC#N` [Example 116] yielded an IC50 of 31 nM.

Molecule `C=C(F)C(=O)N1CCN(c2nc(OC[C@@H]3C[C@@H](OC)CN3C(C)C)nc3c(F)c(-c4cccc5ccc(F)c(Cl)c45)ncc23)C[C@@H]1CC#N` [Example 117] yielded an IC50 of 18 nM. This IC50 is about 1.7-fold lower than that of the molecule before.

In the case of `C=C(F)C(=O)N1CCN(c2nc(OC[C@@H]3CC(F)(F)CN3C(C)C)nc3c(F)c(-c4cccc5ccc(F)c(Cl)c45)ncc23)C[C@@H]1CC#N` [Example 118], the IC50 amounted to 329 nM.

With `C=CC(=O)N1CCN(c2nc(OC[C@@H]3CCCN3C)nc3c(F)c(-c4cccc5ccc(F)c(Cl)c45)ncc23)[C@@H](C)C1` [Example 119], the IC50 amounted to 39 nM.

`C=C(F)C(=O)N1CCN(c2nc(OCCNS(C)(=O)=O)nc3c(F)c(-c4cccc5ccc(F)c(Cl)c45)ncc23)C[C@@H]1CC#N` [Example 120] gave an IC50 of 976 nM.

For `C=C(F)C(=O)N1CCN(c2nc(OC[C@@H]3CCCN3C(C)C)nc3c(F)c(-c4cccc5ccc(F)c(Cl)c45)ncc23)C[C@@H]1CC#N` [Example 121], inhibition was half-maximal at 63 nM (IC50).

Take `C=CC(=O)N1CCN(c2nc(C)nc3c(F)c(-c4cccc5ccc(F)c(Cl)c45)ncc23)C[C@@H]1CC#N` [Example 122]: the IC50 came to 32 nM.

For the molecule `C=CC(=O)N1CCN(c2ncnc3c(F)c(-c4cccc5ccc(F)c(Cl)c45)ncc23)[C@@H](C)C1` [Example 123], the IC50 turned out to be 3960 nM.

`C=C(F)C(=O)N1CCN(c2nc(OCc3ccn[nH]3)nc3c(F)c(-c4cccc5ccc(F)c(Cl)c45)ncc23)C[C@@H]1CC#N` [Example 124] came in with an IC50 of 1770 nM. Compared with the last molecule, the IC50 is about 2.2-fold lower.

As to `C=C(F)C(=O)N1CCN(c2nc(OC[C@@H]3CCCN3C(C)C)nc3c(F)c(-c4cccc5cccc(Cl)c45)ncc23)C[C@@H]1CC#N` [Example 125], the IC50 came out at 42 nM.

Take `C=C(F)C(=O)N1CCN(c2nc(OC[C@@H]3C[C@@H](F)CN3C)nc3c(F)c(-c4cccc5ccc(F)c(Cl)c45)ncc23)C[C@@H]1CC#N` [Example 126]: 15 nM corresponded to half-maximal inhibition (IC50).

As for `C=C(F)C(=O)N1CCN(c2nc(OCC3CN(C)C3)nc3c(F)c(-c4cccc5ccc(F)c(Cl)c45)ncc23)C[C@@H]1CC#N` [Example 127], the IC50 was determined as 243 nM.

Regarding `C=C(F)C(=O)N1CCN(c2nc(OC[C@@H]3CCCN3CC)nc3c(F)c(-c4cccc5ccc(F)c(Cl)c45)ncc23)C[C@@H]1CC#N` [Example 128], 15 nM corresponded to half-maximal inhibition (IC50).

Regarding `C=C(F)C(=O)N1CCN(c2nc(OCCCN3C[C@@H]4C[C@H]3CO4)nc3c(F)c(-c4cccc5ccc(F)c(Cl)c45)ncc23)C[C@@H]1CC#N` [Example 129], half-maximal inhibition (IC50) required 73 nM.

In turn, `C=C(F)C(=O)N1CCN(c2nc(OCC3CCN3C(C)C)nc3c(F)c(-c4cccc5ccc(F)c(Cl)c45)ncc23)C[C@@H]1CC#N` (some centres unmarked) [Example 130] yielded an IC50 of 26 nM.

Turning to `C=CC(=O)N1C2CCC1CN(c1ncnc3c(F)c(-c4cccc5ccc(F)c(Cl)c45)ncc13)C2` [Example 131], the IC50 was 10000 nM. Against the preceding molecule, the IC50 is about 380-fold higher.

`C=C(F)C(=O)N1CCN(c2nc(OCCc3nccn3C)nc3c(F)c(-c4cccc5ccc(F)c(Cl)c45)ncc23)C[C@@H]1CC#N` [Example 132] came in with an IC50 of 145 nM.

`C=CC(=O)N1CCN(c2ncnc3c(F)c(-c4cccc5ccc(F)c(Cl)c45)ncc23)[C@H](C)C1` [Example 133]: 10000 nM corresponded to half-maximal inhibition (IC50).

The molecule `C=CC(=O)N1CCN(c2ncnc3c(F)c(-c4cccc5ccc(F)c(Cl)c45)ncc23)CC1` [Example 134] registered an IC50 of 10000 nM.

On to `C=CC(=O)N1CCN(c2ncnc3c(F)c(-c4cccc5ccc(F)c(Cl)c45)ncc23)CC1C#N` (centres unmarked) [Example 135], for which the IC50 worked out at 6050 nM.
